In the supplement of paper PMC11061612:

Tests used:
[1] = test system: U-698-M; details: B-Cell Non-Hodgkin's Lymphoma
How it was run: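 In 1536-well plates, cancer cell lines in 7.5 μl DMEM/F12 or RPMI with 10% FBS spent 24 hours at 37°C and 5% CO2 and were then dosed for 72 hours with final DMSO typically 0.2%. Viability was read by CellTiter-Glo 2.0 luminescence and scaled between blank-well and DMSO-well means. The single-agent IC50 was fitted from dose responses using a logistic curve in a non-linear mixed effects model, and that logistic curve had two parameters.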

[2] = test system: NCI-H1666 (Lung Adenocarcinoma); assay: combination Emax (second highest fraction inhibited in the dose matrix, 72 h); higher = more inhibition; extreme values may be limits of the assay
How it was run: (§1)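 Cell lines in DMEM/F12 or RPMI with 10% FBS were plated in 1536-well plates, held 24 hours at 37°C, 5% CO2, then given two-drug dose matrices for 72 hours (DMSO typically 0.2%). Viability was read by CellTiter-Glo 2.0 luminescence and scaled as inhibition from 0 (vehicle wells) to 1 (blank wells). Combination Emax is the second-highest inhibition in the matrix; Bliss excess is observed combination effect minus expected EA + EB − EA·EB, EA and EB being single-agent effects.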

[3] = test system: CAPAN-2 (Pancreatic Carcinoma); assay: as above
How it was run: as §1

[4] = test system: TT (Thyroid Gland Carcinoma); assay: as above
How it was run: as §1

[5] = test system: BICR22 (Oral Cavity Carcinoma); assay: as above
How it was run: as §1

[6] = test system: FU97 (Gastric Carcinoma); assay: as above
How it was run: as §1

[7] = test system: U-2-OS (Osteosarcoma); assay: as above
How it was run: as §1

[8] = test system: PANC-10-05 (Pancreatic Carcinoma); assay: as above
How it was run: as §1

[9] = test system: ONS-76 (Other Solid Carcinomas); assay: as above
How it was run: as §1

[10] = test system: ECC10 (Gastric Carcinoma); assay: as above
How it was run: as §1

[11] = test system: NCI-H2066 (Squamous Cell Lung Carcinoma); assay: as above
How it was run: as §1

[12] = test system: IGR-37 (Melanoma); assay: as above
How it was run: as §1

[13] = test system: VCaP (Prostate Carcinoma); assay: as above
How it was run: as §1

[14] = test system: NY (Osteosarcoma); assay: as above
How it was run: as §1

[15] = test system: NCI-H1581 (Non-Small Cell Lung Carcinoma); assay: as above
How it was run: as §1

[16] = test system: CCK-81 (Colorectal Carcinoma); assay: as above
How it was run: as §1

[17] = test system: KARPAS-422 (B-Cell Non-Hodgkin's Lymphoma); assay: as above
How it was run: as §1

[18] = test system: NCI-H64 (Small Cell Lung Carcinoma); assay: as above
How it was run: as §1

[19] = test system: COLO-320-HSR (Colorectal Carcinoma); assay: as above
How it was run: as §1

[20] = test system: NCI-H1666 (Lung Adenocarcinoma); assay: Bliss excess, mean over the matrix (fraction); higher = more synergy
How it was run: as §1

[21] = test system: CAPAN-2 (Pancreatic Carcinoma); assay: as above
How it was run: as §1

[22] = test system: TT (Thyroid Gland Carcinoma); assay: as above
How it was run: as §1

[23] = test system: BICR22 (Oral Cavity Carcinoma); assay: as above
How it was run: as §1

[24] = test system: FU97 (Gastric Carcinoma); assay: as above
How it was run: as §1

[25] = test system: U-2-OS (Osteosarcoma); assay: as above
How it was run: as §1

[26] = test system: PANC-10-05 (Pancreatic Carcinoma); assay: as above
How it was run: as §1

[27] = test system: ONS-76 (Other Solid Carcinomas); assay: as above
How it was run: as §1

[28] = test system: ECC10 (Gastric Carcinoma); assay: as above
How it was run: as §1

[29] = test system: NCI-H2066 (Squamous Cell Lung Carcinoma); assay: as above
How it was run: as §1

[30] = test system: IGR-37 (Melanoma); assay: as above
How it was run: as §1

[31] = test system: VCaP (Prostate Carcinoma); assay: as above
How it was run: as §1

[32] = test system: NY (Osteosarcoma); assay: as above
How it was run: as §1

[33] = test system: NCI-H1581 (Non-Small Cell Lung Carcinoma); assay: as above
How it was run: as §1

[34] = test system: CCK-81 (Colorectal Carcinoma); assay: as above
How it was run: as §1

[35] = test system: KARPAS-422 (B-Cell Non-Hodgkin's Lymphoma); assay: as above
How it was run: as §1

[36] = test system: NCI-H64 (Small Cell Lung Carcinoma); assay: as above
How it was run: as §1

[37] = test system: COLO-320-HSR (Colorectal Carcinoma); assay: as above
How it was run: as §1
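Wherever Bliss excess, mean over the matrix is given: after 72 h of two-drug dosing.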

NC1(c2ccc(-c3nc4ccn5c(=O)[nH]nc5c4cc3-c3ccccc3)cc2)CCC1 [MK-2206]
IC50, cell viability 72 h ([1]; max 10 µM): > 10 µM

N#Cc1cnc(Nc2cc(NC[C@H]3CNCCO3)c(C(F)(F)F)cn2)cn1 [SRA737]
IC50, cell viability 72 h ([1]; max 10 µM): 2.86 µM

C[C@@H](c1ccc2nccn2c1)n1nnc2ncc(-c3cnn(C)c3)nc21 [Savolitinib]
IC50, cell viability 72 h ([1]; max 1 µM): > 1 µM

COc1cccc(OCCCN)c1-c1cc(Nc2cnc(C#N)cn2)n[nH]1 [Prexasertib]
IC50, cell viability 72 h ([1]; max 1 µM): 0.0111 µM

O=C(Nc1ccc2[nH]nc(-c3ccncc3)c2c1)[C@@H]1CCN(CC(=O)N2CCN(c3ccc(-c4ncccn4)cc3)CC2)C1
IC50, cell viability 72 h ([1]; max 5 µM): > 5 µM

Nc1ccn([C@@H]2O[C@H](CO)[C@@H](O)C2(F)F)c(=O)n1 [Gemcitabine]
IC50, cell viability 72 h ([1]; max 0.3 µM): 0.13 µM

C[C@@H](Nc1cc(F)cc(F)c1)c1cc(C(=O)N(C)C)cc2c(=O)cc(N3CCOCC3)oc12 [AZD8186]
IC50, cell viability 72 h ([1]; max 10 µM): > 10 µM

CN(C)CCCOc1ccc(-c2ccc3ncc4c(c3c2)n(C2CCOCC2)c(=O)n4C)cn1 [AZD0156]
IC50, cell viability 72 h ([1]; max 3 µM): > 3 µM

CS(=O)(=O)CCNCc1ccc(-c2ccc3ncnc(Nc4ccc(OCc5cccc(F)c5)c(Cl)c4)c3c2)o1 [Lapatinib]
IC50, cell viability 72 h ([1]; max 10 µM): > 10 µM

CC(=O)c1c(C)c2cnc(Nc3ccc(N4CCNCC4)cn3)nc2n(C2CCCC2)c1=O [Palbociclib]
IC50, cell viability 72 h ([1]; max 10 µM): > 10 µM

Cc1c2c(nn1C)CSCc1cc(n(C)n1)CSc1cc(c3ccccc3c1)OCCCc1c(C(=O)O)n(C)c3c-2c(Cl)ccc13 [AZD5991]
IC50, cell viability 72 h ([1]; max 1 µM): 0.0692 µM

CC(C)n1c(=O)n(C)c2cnc3cc(F)c(-c4ccc(OCCCN5CCCCC5)nc4)cc3c21 [AZD1390]
IC50, cell viability 72 h ([1]; max 0.3 µM): > 0.3 µM

CC1(C)CCC(CN2CCN(c3ccc(C(=O)NS(=O)(=O)c4ccc(NCC5CCOCC5)c([N+](=O)[O-])c4)c(Oc4cnc5[nH]ccc5c4)c3)CC2)=C(c2ccc(Cl)cc2)C1 [Venetoclax]
IC50, cell viability 72 h ([1]; max 1 µM): > 1 µM

Cc1cc2ncnn2cc1Nc1ncc2c(n1)n(C1CCOCC1)c(=O)n2C [AZD7648]
IC50, cell viability 72 h ([1]; max 10 µM): > 10 µM

COc1nnc2ccc(N3CCC(c4ccc(OCCN5CCN(C)C(=O)[C@H]5C)cc4)CC3)nn12 [AZD5153]
IC50, cell viability 72 h ([1]; max 1 µM): 0.265 µM

CN(CCO)CC[C@H](CSc1ccccc1)Nc1ccc(S(=O)(=O)NC(=O)c2ccc(N3CCC([C@@H](O)c4ccccc4-c4ccc(Cl)cc4)CC3)cc2)cc1S(=O)(=O)C(F)(F)F [AZD4320]
IC50, cell viability 72 h ([1]; max 1 µM): > 1 µM

Cn1cnc2c(F)c(Nc3ccc(Br)cc3Cl)c(C(=O)NOCCO)cc21 [Selumetinib]
IC50, cell viability 72 h ([1]; max 10 µM): > 10 µM

COc1cc2ncnc(Nc3ccc(F)c(Cl)c3)c2cc1OCCCN1CCOCC1 [Gefitinib]
IC50, cell viability 72 h ([1]; max 10 µM): > 10 µM

Cc1nc(Nc2ncc(C(=O)Nc3c(C)cccc3Cl)s2)cc(N2CCN(CCO)CC2)n1 [Dasatinib]
IC50, cell viability 72 h ([1]; max 2 µM): > 2 µM

O=c1[nH]cc(F)c(=O)[nH]1 [5-Fluorouracil]
IC50, cell viability 72 h ([1]; max 20 µM): > 20 µM

CC(=O)Nc1cccc(-n2c(=O)n(C3CC3)c(=O)c3c(Nc4ccc(I)cc4F)n(C)c(=O)c(C)c32)c1 [Trametinib]
IC50, cell viability 72 h ([1]; max 1 µM): > 1 µM

COc1cc(Nc2ncc3c(n2)-c2ccc(Cl)cc2C(c2c(F)cccc2OC)=NC3)ccc1C(=O)O [Alisertib]
IC50, cell viability 72 h ([1]; max 10 µM): 8.03 µM

COc1cccc2c1C(=O)c1c(O)c3c(c(O)c1C2=O)C[C@@](O)(C(=O)CO)C[C@@H]3O[C@H]1C[C@H](N)[C@H](O)[C@H](C)O1 [Doxorubicin]
IC50, cell viability 72 h ([1]; max 1 µM): 0.495 µM

CCc1c2c(nc3ccc(O)cc13)-c1cc3c(c(=O)n1C2)COC(=O)[C@]3(O)CC [SN-38]
IC50, cell viability 72 h ([1]; max 0.3 µM): 0.022 µM

COc1cc2c(cc1OCCCCCOc1cc3c(cc1OC)C(=O)N1C=C(C)C[C@H]1C=N3)N=C[C@@H]1CC(C)=CN1C2=O [SG3199]
IC50, cell viability 72 h ([1]; max 0.001 µM): > 0.001 µM

C[C@@H]1COCCN1c1cc(C2([S@](C)(=N)=O)CC2)nc(-c2ccnc3[nH]ccc23)n1 [AZD6738] + C1CC(C1)(C(=O)[O-])C(=O)[O-].N.N.[Pt+2] [Carboplatin] (first compound max 10 µM, 7x7, partner max 10 µM)
combination Emax [2]: 0.304 | combination Emax [3]: 0.159 | combination Emax [4]: 0.442 | combination Emax [5]: 0.804 | combination Emax [6]: 0.349 | combination Emax [7]: 0.511 | combination Emax [8]: 0.477 | combination Emax [9]: 0.814 | combination Emax [10]: 0.397 | combination Emax [11]: 0.412 | combination Emax [12]: 0.616 | combination Emax [13]: 0.48 | combination Emax [14]: 0.568 | combination Emax [15]: 0.281 | combination Emax [16]: 0.886 | combination Emax [17]: 0.434 | combination Emax [18]: 0.793 | combination Emax [19]: 0.495 | Bliss excess [20]: -0.0814 | Bliss excess [21]: -0.0168 | Bliss excess [22]: -0.0108 | Bliss excess [23]: -0.0297 | Bliss excess [24]: -0.0215 | Bliss excess [25]: -0.0234 | Bliss excess [26]: -0.0611 | Bliss excess [27]: -0.0512 | Bliss excess [28]: -0.0097 | Bliss excess [29]: -0.0715 | Bliss excess [30]: -0.0539 | Bliss excess [31]: -0.0644 | Bliss excess [32]: -0.0504 | Bliss excess [33]: -0.0399 | Bliss excess [34]: -0.0429 | Bliss excess [35]: -0.0683 | Bliss excess [36]: -0.0431 | Bliss excess [37]: -0.036
